From US11730720B2, “ALK5 inhibitors” (THERAVANCE BIOPHARMA R&D IP, LLC, priority 2018, dated 2023) come the findings set out here.

The test system of assay [1] is TGF-β-stimulated SMAD3 phosphorylation in BEAS-2B cells. The experiment in a line: Cellular ALK5 potency assay, inhibition of TGF-β stimulated pSMAD3 formation in BEAS-2B cells. The note with it: Homo sapiens, inhibition of TGF-β (10 ng/mL) stimulated pSMAD3 formation, 1 hour compound incubation, read-out: BEAS2B pIC50 (converted). The assay is classed as cell-based. The essentials: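 Phospho-SMAD3 was quantified by AlphaLISA in lysates of human lung epithelial BEAS-2B cells. Compound was added 1 h (37 °C, HEPES/BSA-supplemented HBSS) before a 30 min challenge with 10 ng/mL TGF-β. Values are pIC50 relative to stimulated cells without compound.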

In assay [2] the target is T1, recombinant human ALK5 (TGF-βR1) protein (Homo sapiens, UniProt P36897).
T1 construct: purchased Life Technologies PR9075A
T1 sequence (P36897 34-503): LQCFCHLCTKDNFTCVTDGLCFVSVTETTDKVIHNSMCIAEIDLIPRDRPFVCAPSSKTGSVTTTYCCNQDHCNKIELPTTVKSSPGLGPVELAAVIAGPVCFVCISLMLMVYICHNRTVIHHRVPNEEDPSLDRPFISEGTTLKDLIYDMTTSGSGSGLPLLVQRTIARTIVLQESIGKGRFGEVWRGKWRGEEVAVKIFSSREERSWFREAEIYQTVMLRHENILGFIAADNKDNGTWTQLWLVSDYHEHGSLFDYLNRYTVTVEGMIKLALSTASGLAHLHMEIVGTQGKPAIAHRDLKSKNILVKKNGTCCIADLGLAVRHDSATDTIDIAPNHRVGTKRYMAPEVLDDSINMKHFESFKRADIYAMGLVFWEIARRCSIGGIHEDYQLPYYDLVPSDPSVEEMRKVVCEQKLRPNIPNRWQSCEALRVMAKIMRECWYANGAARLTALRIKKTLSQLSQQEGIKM
The experiment in a line: Biochemical ALK5 (TGF-βR1) assay to measure pKi (LANCE Ultra ULight kinase assay). Particulars: apparent pKi, converted from pIC50 using the Cheng-Prusoff equation. The method in brief: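 TR-FRET kinase format: compound dose range 10 μM–25 pM equilibrated 60 min with human ALK5 and ULight-labelled topoisomerase 2α peptide in HEPES/MgCl2 buffer pH 7.5 with DTT. Reaction started with ATP (125 μM stock, 5× final), 60 min at 37° C, stopped with EDTA/Eu-anti-phospho antibody; pKi derived from pIC50 via Cheng-Prusoff.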
For orientation: TR-FRET usually uses a lanthanide donor and a delayed reading to cut background.

In the case of `Fc1cc(F)c(-c2n[nH]cc2-c2ccc3ncc(-c4cnc5n4CCN5)cc3n2)cc1Cl` [Compound 6-54, 2-[3-(5-chloro-2,4-difluoro-phenyl)-1H-pyrazol-4-yl]-7-(6,7-dihydro-5H-imidazo[1,2-a]imidazol-3-yl)-1,5-naphthyridine], in assay [1], the IC50 was 25.1 to 158 nM. Also, in assay [2], the Ki was 0.0398 to 0.316 nM.

Regarding `Fc1cc(F)c(-c2n[nH]cc2-c2ccc3ncc(-c4ncn5c4NCC5)cc3n2)cc1Cl` [Compound 6-55, 2-[3-(5-chloro-2,4-difluoro-phenyl)-1H-pyrazol-4-yl]-7-(2,3-dihydro-1H-imidazo[1,5-a]imidazol-7-yl)-1,5-naphthyridine], the IC50 in assay [1] was 25.1 to 158 nM. Besides, the Ki in assay [2] was 0.0398 to 0.316 nM.

Regarding `Fc1cc(F)c(-c2n[nH]cc2-c2ccc3ncc(-c4cc5n(n4)CCNC5)cc3n2)cc1Cl` [Compound 6-56, 2-[3-(5-chloro-2,4-difluoro-phenyl)-1H-pyrazol-4-yl]-7-(4,5,6,7-tetrahydropyrazolo[1,5-a]pyrazin-2-yl)-1,5-naphthyridine], in assay [1], the IC50 is 25.1 to 158 nM. Moreover, in assay [2], the Ki was 0.0398 to 0.316 nM.

Turning to `Fc1cc(F)c(-c2n[nH]cc2-c2ccc3ncc(-c4nnn5c4CNCC5)cc3n2)cc1Cl` [Compound 6-57, 2-[3-(5-chloro-2,4-difluoro-phenyl)-1H-pyrazol-4-yl]-7-(4,5,6,7-tetrahydrotriazolo[1,5-a]pyrazin-3-yl)-1,5-naphthyridine], the IC50 in assay [1] was 25.1 to 158 nM. For the same compound, the Ki in assay [2] was 0.398 to 3.16 nM.

As to `Fc1cc(F)c(-c2n[nH]cc2-c2ccc3ncc(-c4nnn5c4NCC5)cc3n2)cc1Cl` [Compound 6-58, 2-[3-(5-chloro-2,4-difluoro-phenyl)-1H-pyrazol-4-yl]-7-(5,6-dihydro-4H-imidazo[1,2-c]triazol-3-yl)-1,5-naphthyridine], the IC50 in assay [1] was 25.1 to 158 nM. For the same compound, the Ki in assay [2] is 0.0398 to 0.316 nM.

Regarding `Fc1cc(F)c(-c2n[nH]cc2-c2ccc3ncc(-c4[nH]nc5c4CCN5)cc3n2)cc1Cl` [Compound 6-59, 2-[3-(5-chloro-2,4-difluoro-phenyl)-1H-pyrazol-4-yl]-7-(2,4,5,6-tetrahydropyrrolo[2,3-c]pyrazol-3-yl)-1,5-naphthyridine], the IC50 in assay [1] is 25.1 to 158 nM. For the same compound, the Ki in assay [2] was 0.0398 to 0.316 nM.

As for `Fc1cc(F)c(-c2n[nH]cc2-c2ccc3ncc(-c4cnc5n4CCCN5)cc3n2)cc1Cl` [Compound 6-60, 2-[3-(5-chloro-2,4-difluoro-phenyl)-1H-pyrazol-4-yl]-7-(5,6,7,8-tetrahydroimidazo[1,2-a]pyrimidin-3-yl)-1,5-naphthyridine], the IC50 in assay [1] is 25.1 to 158 nM. In assay [2], the Ki is 0.398 to 3.16 nM.

`COC(=O)N1CCc2nnc(-c3cnc4ccc(-c5c[nH]nc5-c5cc(Cl)c(F)cc5F)nc4c3)cc2C1` [Compound 6-61, methyl 3-[6-[3-(5-chloro-2,4-difluoro-phenyl)-1H-pyrazol-4-yl]-1,5-naphthyridin-3-yl]-7,8-dihydro-5H-pyrido[4,3-c]pyridazine-6-carboxylate]: in assay [1], the IC50 was 25.1 to 158 nM. Also, the Ki in assay [2] is 0.0398 to 0.316 nM.

As for `Fc1cc(F)c(-c2n[nH]cc2-c2ccc3ncc(-c4cn(Cc5c[nH]cn5)nn4)cc3n2)cc1Cl` [Compound 6-62, 7-(1-((1H-imidazol-4-yl)methyl)-1H-1,2,3-triazol-4-yl)-2-(3-(5-chloro-2,4-difluorophenyl)-1H-pyrazol-4-yl)-1,5-naphthyridine], in assay [1], the IC50 was 25.1 to 158 nM. Also, the Ki in assay [2] was 0.0398 to 0.316 nM.

Consider `Fc1cc(F)c(-c2n[nH]cc2-c2ccc3ncc(-c4cn(Cc5cnc6c(c5)CNCC6)nn4)cc3n2)cc1Cl` [Compound 6-63, 2-[3-(5-chloro-2,4-difluoro-phenyl)-1H-pyrazol-4-yl]-7-[1-(5,6,7,8-tetrahydro-1,6-naphthyridin-3-ylmethyl)triazol-4-yl]-1,5-naphthyridine], for which the IC50 in assay [1] is 25.1 to 158 nM. Further, in assay [2], the Ki is 0.0398 to 0.316 nM.

With `Fc1cc(F)c(-c2n[nH]cc2-c2ccc3ncc(-c4nnc5n4CCN5)cc3n2)cc1Cl` [Compound 6-64, 2-[3-(5-chloro-2,4-difluoro-phenyl)-1H-pyrazol-4-yl]-7-(6,7-dihydro-5H-imidazo[2,1-c][1,2,4]triazol-3-yl)-1,5-naphthyridine], the IC50 in assay [1] was 200 to 1260 nM. Further, the Ki in assay [2] was 0.398 to 3.16 nM.

As for `Fc1cc(F)c(-c2n[nH]cc2-c2ccc3ncc(-c4ncc5n4CCN5)cc3n2)cc1Cl` [Compound 6-65, 2-[3-(5-chloro-2,4-difluoro-phenyl)-1H-pyrazol-4-yl]-7-(2,3-dihydro-1H-imidazo[1,2-c]imidazol-5-yl)-1,5-naphthyridine], the IC50 in assay [1] was 200 to 1260 nM. Further, the Ki in assay [2] was 3.98 to 31.6 nM.

With `Fc1cc(F)c(-c2n[nH]cc2-c2ccc3ncc(NCC4CCCNC4)cc3n2)cc1Cl` (stereo not drawn) [Compound 6-66, 6-[3-(5-chloro-2,4-difluoro-phenyl)-1H-pyrazol-4-yl]-N-(3-piperidylmethyl)-1,5-naphthyridin-3-amine], the IC50 in assay [1] was 200 to 1260 nM. Also, the Ki in assay [2] was 0.398 to 3.16 nM.

As for `CNCCn1cc(-c2cnc3ccc(-c4c[nH]nc4-c4cc(Cl)c(F)cc4F)nc3c2)nn1` [Compound 6-67, 2-[4-[6-[3-(5-chloro-2,4-difluoro-phenyl)-1H-pyrazol-4-yl]-1,5-naphthyridin-3-yl]triazol-1-yl]-N-methyl-ethanamine], in assay [1], the IC50 is 25.1 to 158 nM. The Ki in assay [2] was at most 0.0316 nM.

On to `O=C(O)[C@H]1CN(c2cnc3ccc(-c4c[nH]nc4-c4cc(Cl)c(F)cc4F)nc3c2)CCN1` [Compound 6-68, (2R)-4-[6-[3-(5-chloro-2,4-difluoro-phenyl)-1H-pyrazol-4-yl]-1,5-naphthyridin-3-yl]piperazine-2-carboxylic acid], for which the IC50 in assay [1] was 200 to 1260 nM. Besides, the Ki in assay [2] was 0.398 to 3.16 nM.

In the case of `Fc1cc(F)c(-c2n[nH]cc2-c2ccc3ncccc3n2)cc1Cl` [Compound 6-71, 2-[3-(5-chloro-2,4-difluoro-phenyl)-1H-pyrazol-4-yl]-1,5-naphthyridine], the IC50 in assay [1] is 25.1 to 158 nM. Besides, in assay [2], the Ki is 0.398 to 3.16 nM.

Take `CC(CO)N1CCN(CCNc2cnc3ccc(-c4c[nH]nc4-c4cc(Cl)c(F)cc4F)nc3c2)CC1` (stereo not drawn) [Compound 6-72, 2-[4-[2-[[6-[3-(5-chloro-2,4-difluoro-phenyl)-1H-pyrazol-4-yl]-1,5-naphthyridin-3-yl]amino]ethyl]piperazin-1-yl]propan-1-ol]: the IC50 in assay [1] is 25.1 to 158 nM. The Ki in assay [2] was 0.0398 to 0.316 nM.

As for `C[C@@H]1CN(CCNc2cnc3ccc(-c4c[nH]nc4-c4cc(Cl)c(F)cc4F)nc3c2)C[C@H](C)N1` [Compound 6-74, 6-[3-(5-chloro-2,4-difluoro-phenyl)-1H-pyrazol-4-yl]-N-[2-[rac-(3R,5S)-3,5-dimethylpiperazin-1-yl]ethyl]-1,5-naphthyridin-3-amine], in assay [1], the IC50 was 25.1 to 158 nM. Further, the Ki in assay [2] is 0.0398 to 0.316 nM.

With `COC(=O)CC1CN(CCNc2cnc3ccc(-c4c[nH]nc4-c4cc(Cl)c(F)cc4F)nc3c2)CCN1` (stereo not drawn) [Compound 6-75, methyl 2-[4-[2-[[6-[3-(5-chloro-2,4-difluoro-phenyl)-1H-pyrazol-4-yl]-1,5-naphthyridin-3-yl]amino]ethyl]piperazin-2-yl]acetate], in assay [1], the IC50 was 25.1 to 158 nM. For the same compound, the Ki in assay [2] is 0.398 to 3.16 nM.

On to `Fc1cc(F)c(-c2[nH]cnc2-c2ccc3ncc(NCCN4CCNCC4)cc3n2)cc1Cl` [Compound 7-1, 6-(5-(5-chloro-2,4-difluorophenyl)-1H-imidazol-4-yl)-N-(2-(piperazin-1-yl)ethyl)-1,5-naphthyridin-3-amine], for which the IC50 in assay [1] is 25.1 to 158 nM. Further, the Ki in assay [2] was 0.0398 to 0.316 nM.

In the case of `CC(C)N1CCN(CCNc2cnc3ccc(-c4nc[nH]c4-c4cc(Cl)c(F)cc4F)nc3c2)CC1` [Compound 7-2, 6-[5-(5-chloro-2,4-difluoro-phenyl)-1H-imidazol-4-yl]-N-[2-(4-isopropylpiperazin-1-yl)ethyl]-1,5-naphthyridin-3-amine], the IC50 in assay [1] is 25.1 to 158 nM. The Ki in assay [2] was 0.0398 to 0.316 nM.

In the case of `O=C(O)[C@H]1CN(c2cnc3ccc(-c4nc[nH]c4-c4cc(Cl)c(F)cc4F)nc3c2)CCN1` [Compound 7-3, (R)-4-(6-(5-(5-chloro-2,4-difluorophenyl)-1H-imidazol-4-yl)-1,5-naphthyridin-3-yl)piperazine-2-carboxylic acid], the IC50 in assay [1] was 25.1 to 158 nM. In assay [2], the Ki was 0.398 to 3.16 nM.

With `CNCCn1cc(-c2cnc3ccc(-c4nc[nH]c4-c4cc(Cl)c(F)cc4F)nc3c2)cn1` [Compound 7-4, 2-(4-(6-(5-(5-chloro-2,4-difluorophenyl)-1H-imidazol-4-yl)-1,5-naphthyridin-3-yl)-1H-pyrazol-1-yl)-N-methylethan-1-amine], the IC50 in assay [1] is 25.1 to 158 nM. The Ki in assay [2] is 0.0398 to 0.316 nM.

For the compound `NCCn1cc(-c2cnc3ccc(-c4nc[nH]c4-c4cc(Cl)c(F)cc4F)nc3c2)cn1` [Compound 7-5, 2-[4-[6-[5-(5-chloro-2,4-difluoro-phenyl)-1H-imidazol-4-yl]-1,5-naphthyridin-3-yl]pyrazol-1-yl]ethanamine], the IC50 in assay [1] is 25.1 to 158 nM. For the same compound, in assay [2], the Ki is 0.0398 to 0.316 nM.
